Reference: publication PMC10779311, “Antileishmanial Activity, Toxicity and Mechanism of Action of Complexes of Sodium Usnate with Lanthanide Ions: Eu(III), Sm(III), Gd(III), Nd(III), La(III) and Tb(III)” (International Journal of Molecular Sciences, 2023)
Values after ≈ are worked out from the molar mass of the structure shown.

Key:
[1] = tested on: L. (L.) amazonensis promastigote forms; assay: In vitro antileishmanial activity on promastigote forms (MTT); type: cell-based, Leishmania (Leishmania) amazonensis; conditions: 72 h, MTT; read-out: L. amazonensis Promastigotes (Pro.) IC50
[2] = tested on: L. (L.) amazonensis intracellular amastigotes; assay: In vitro antileishmanial activity on intracellular amastigotes in peritoneal macrophages; type: cell-based, Leishmania (Leishmania) amazonensis
Method: Peritoneal macrophages were obtained from BALB/c mice in RPMI 1640 culture medium (Sigma-Aldrich® São Paulo, Brazil). After exclusion of inviable cells with trypan blue staining (Sigma-Aldrich® São Paulo, Brazil), cells were transferred to 24-well plates with 13 mm round glass coverslips (10^6 cells/well) and kept at 37 °C/5% CO2. After adhesion for one hour, cells were infected with promastigote forms of L. (L.) amazonensis in the stationary phase (4 × 10^6 cells/well). After 4 h of incubation, samples (complexes 1–7) were added in six replicates (6.25–50.0 µg·mL^−1). […] Coverslips were removed after 24 h, subjected to a dehydration battery with increasing concentrations of acetone: xylol and stained with Giemsa (Sigma-Aldrich®, São Paulo, Brazil) diluted 1:10 in distilled water. After mounting on slides, 200 cells per coverslip were analyzed by light microscopy and the average number of amastigotes/cells was calculated. IC50 was determined using a non-linear dose–response regression curve as described above. The concentrations of complexes were compared by Two-way ANOVA followed by the Tukey test.

[3] = tested on: NIH/3T3 fibroblasts; assay: Cytotoxicity in mammalian cells (sulforhodamine B); type: cell-based; conditions: 48 h, read-out: Fibroblasts NIH/3T3 (Fib.) IC50
Method: The cytotoxic effect of compounds 1–7 was evaluated on NIH/3T3 fibroblasts obtained from the Rio de Janeiro Cell Bank (Duque de Caxias, Brazil). Fibroblasts were seeded at […] in 96-well plates. After 24 h of fixation, cells were incubated for 48 h with 1–7 at 2.5–250 µg·mL^−1, in three replicates. Cell growth was evaluated using the sulforhodamine B colorimetric method, and the optical with absorbances read on the PT-READER microplate instrument (Spectramax 190, Molecular Devices, Sunnyvale, CA, USA) at 540 nm. […] The growth inhibition percentage-GI (%) of each test sample was calculated in Microsoft Office Excel 2007 software. IC50 was determined graphically in the Microcal Origin Version 6.00 program. The selectivity index (SI) was calculated as the ratio between the cytotoxicity on cells (IC50) and the activity on the parasite forms (IC50).

[4] = tested on: L. (L.) amazonensis-infected macrophages; assay: NO production by infected cells (Griess reaction); type: cell-based, BALB/c mice; conditions: 24 h after treatment, lowest concentration 6.25 µg·mL^−1
Method: Nitric oxide (NO) production by infected and treated peritoneal macrophages was estimated in the supernatants from the intracellular amastigotes assay by the Griess reaction. Aliquots of the supernatants ([…]) were incubated with Griess reagent (1:1) for 10 min at room temperature. Absorbance was read on a microplate reader (HumanReader HS, Wiesbaden, Germany) at 550 nm. Conversion of nitrite (NO^−2) to micromolar (µM) was performed by comparing the samples to a standard curve obtained with known concentrations (1–10 µM) of sodium nitrite diluted in RPMI 1640 medium (Sigma-Aldrich® São Paulo, Brazil). The average and standard error of the mean (SEM) were calculated from three replicates. The data were analyzed using ANOVA and subsequently subjected to the Bonferroni test.

[5] = tested on: L. (L.) amazonensis promastigote forms; assay: Flow cytometry for mitochondrial membrane potential (TMRE); type: cell-based, Leishmania (Leishmania) amazonensis
[6] = tested on: L. (L.) amazonensis promastigote forms; assay: Flow cytometry for apoptosis and membrane permeability (PE Annexin V / 7-AAD); type: cell-based, Leishmania (Leishmania) amazonensis; conditions: treatment at IC50
Excerpt: PE Annexin V staining precedes the loss of membrane integrity observed in the final stages of cell death, resulting from either apoptotic or necrotic processes. PE Annexin V is used in conjunction with the vital dye 7-Amino-Actinomycin (7-AAD) to identify early apoptotic cells (7-AAD negative, PE Annexin V positive). Viable cells with intact membranes exclude 7-AAD, but the membranes of dead and damaged cells are permeable to 7-AAD. Cells that are in late apoptosis or already dead are both PE Annexin V and 7-AAD positive. […] Heat-killed parasites (60 °C bath/10 min) were used as positive control, and untreated parasites were used as negative control. Promastigotes were stained with 5 µL of PE Annexin V and 5 µL 7-AAD (PE Annexin V Apoptosis Detection Kit I, BD Biosciences^TM, Franklin Lakes, NJ, USA) and immediately subjected to flow cytometric analysis (BD FACSCanto^TM II). Then, 10,000 events were captured in the region previously determined to correspond to the parasites. Fluorescence was quantified and histograms were generated.

[7] = tested on: promastigotes of Leishmania major; set-up: method as in ref 18 Derici et al.; conditions: ref 18 Derici et al.; cited from earlier work
[8] = tested on: promastigotes of L. (L.) infantum; set-up: method as in ref 18 Derici et al.; conditions: ref 18 Derici et al.; cited from earlier work
[9] = tested on: promastigotes of L. tropica; set-up: method as in ref 18 Derici et al.; conditions: ref 18 Derici et al.; cited from earlier work
[10] = tested on: L. (L.) infantum promastigotes; set-up: method as in ref 16 Luz et al.; conditions: ref 16 Luz et al.; cited from earlier work
[11] = tested on: Trypanosoma cruzi epimastigotes; set-up: method as in ref 45 Carvalho et al.; conditions: 30–50 μg·mL^−1; ref 45 Carvalho et al.; cited from earlier work
[12] = tested on: L. (L.) infantum promastigotes; set-up: method as in ref 16 Luz et al.; conditions: 25 μg·mL^−1; ref 16 Luz et al.; cited from earlier work

CC(=O)C1=C([O-])C=C2Oc3c(C(C)=O)c(O)c(C)c(O)c3C2(C)C1=O.CC(=O)C1=C([O-])C=C2Oc3c(C(C)=O)c(O)c(C)c(O)c3C2(C)C1=O.CC(=O)C1=C([O-])C=C2Oc3c(C(C)=O)c(O)c(C)c(O)c3C2(C)C1=O.O.O.O.[Eu+3] (centres unmarked) [EuL3·3H2O 4]
IC50 [1]: 200 nM | IC50 ([2]; BALB/c peritoneal macrophages, 24 h, Giemsa count, read-out: L. amazonensis Intracellular Amastigotes (Ama.) IC50): 2980 nM | IC50 on intracellular amastigotes ([2]; converted from µM): 3.687 µg/mL | IC50 [3]: 20100 nM | NO release from infected macrophages [4]: strongest effect | NO release from infected macrophages ([4]; listed as EuL3·3H2O): triggered NO release | TMRE-labeled promastigotes ([5]; 48 h after treatment at the calculated IC50): 79.9% | TMRE-labeled promastigotes ([5]; 72 h after treatment at the calculated IC50): 80.6% | 7-AAD-stained parasites ([6]; 24 h): 0.5% | An. (PE Annexin V-stained parasites) ([6]; 24 h): 0.6% | An./7-AAD (double stained parasites) ([6]; 24 h): 0.7% | Unst. (unstained parasites) ([6]; 24 h): 98.2% | 7-AAD-stained parasites ([6]; 48 h): 1.0% | An. (PE Annexin V-stained parasites) ([6]; 48 h): 1.3% | An./7-AAD (double stained parasites) ([6]; 48 h): 2.3% | Unst. (unstained parasites) ([6]; 48 h): 95.4% | 7-AAD-stained parasites ([6]; 72 h): 6.0% | An. (PE Annexin V-stained parasites) ([6]; 72 h): 1.9% | An./7-AAD (double stained parasites) ([6]; 72 h): 8.1% | Unst. (unstained parasites) ([6]; 72 h): 84.0%

CC(=O)c1c(O)c(C)c(O)c2c1OC1=CC(=O)C(C(C)=O)C(=O)C12C (centres unmarked) [usnic acid, 2,6-diacetyl-7,9-dihydroxy-8,9-dimethyl-1,3(2H,9bH)-dibenzofurandione]
IC50/48 h on promastigotes [7]: 10.76 µg/mL (≈ 31.3 µM) | IC50/48 h on promastigotes [8]: 13.34 µg/mL (≈ 38.7 µM) | IC50/48 h on promastigotes [9]: 21.06 µg/mL (≈ 61.2 µM) | IC50/72 h on promastigotes [10]: 18.30 µg/mL (≈ 53.1 µM) | damage to the mitochondria [11]: marked swelling and branching | changes in the mitochondrial morphology [12]: marked swelling
